Tests used:
Assay type in all cases: in vivo
[1] = tested on: Euschistus Heros (Neotropical BROWN Stink Bug); test: Euschistus heros (neotropical brown stink bug) feeding/contact activity; conditions: 120 h, application rate 200 ppm, soybean leaves sprayed, N2 nymphs, assessed 5 days after infestation
Procedure: Euschistus Heros (Neotropical BROWN Stink Bug) Feeding/Contact Activity
Soybean leaves on agar in 24-well microtiter plates were sprayed with aqueous test solutions prepared from 10 ′000 ppm DMSO stock solutions. After drying the leaves were infested with N2 nymphs. The samples were assessed for mortality 5 days after infestation.

[2] = tested on: Spodoptera Littoralis (Egyptian Cotton Leaf Worm); test: Spodoptera littoralis (Egyptian cotton leaf worm) feeding/contact activity; conditions: foliar, 72 h, application rate 200 ppm, cotton leaf discs sprayed, L1 larvae, assessed 3 days after infestation
Procedure: Spodoptera Littoralis (Egyptian Cotton Leaf Worm) Feeding/Contact Activity
Cotton leaf discs were placed onto agar in 24-well microtiter plates and sprayed with aqueous test solutions prepared from 10 ′000 ppm DMSO stock solutions. After drying the leaf discs were infested with five L1 larvae. The samples were assessed for mortality 3 days after infestation.

[3] = tested on: Tetranychus Urticae (Two-Spotted Spider Mite); test: Tetranychus urticae (two-spotted spider mite) feeding/contact activity; conditions: foliar, 192 h, application rate 200 ppm, bean leaf discs sprayed, mite population of mixed ages, assessed 8 days after infestation, read-out: mortality on mixed population (mobile stages)
Procedure: Tetranychus Urticae (Two-Spotted Spider Mite) Feeding/Contact Activity
Bean leaf discs on agar in 24-well microtiter plates were sprayed with aqueous test solutions prepared from 10 ′000 ppm DMSO stock solutions. After drying the leaf discs were infested with a mite population of mixed ages. The samples were assessed for mortality on mixed population (mobile stages) 8 days after infestation.

[4] = tested on: Plutella Xylostella (Diamond Back Moth); test: Plutella xylostella (diamond back moth) feeding/contact activity; conditions: 120 h, application rate 200 ppm, artificial diet treated by pipetting, L2 larvae, assessed 5 days after infestation
Procedure: Plutella Xylostella (Diamond Back Moth) Feeding/Contact Activity
24-well microtiter plates with artificial diet were treated with aqueous test solutions prepared from 10 ′000 ppm DMSO stock solutions by pipetting. After drying, the plates were infested with L2 larvae (10 to 15 per well). The samples were assessed for mortality 5 days after infestation.

[5] = tested on: Diabrotica Balteata (Corn Root Worm); test: Diabrotica balteata (corn root worm) mortality on sprayed maize sprouts; conditions: 96 h, application rate 200 ppm, L2 larvae, assessed 4 days after infestation
Procedure: Diabrotica Balteata (Corn Root Worm)
Maize sprouts placed onto an agar layer in 24-well microtiter plates were treated with aqueous test solutions prepared from 10 ′000 ppm DMSO stock solutions by spraying. After drying, the plates were infested with L2 larvae (6 to 10 per well). The samples were assessed for mortality 4 days after infestation.

[6] = tested on: Thrips Tabaci (Onion Thrips); test: Thrips tabaci (onion thrips) feeding/contact activity; conditions: foliar, 144 h, application rate 200 ppm, sunflower leaf discs sprayed, thrips population of mixed ages, assessed 6 days after infestation
Procedure: Thrips Tabaci (Onion Thrips) Feeding/Contact Activity
Sunflower leaf discs were placed on agar in 24-well microtiter plates and sprayed with aqueous test solutions prepared from 10 ′000 ppm DMSO stock solutions. After drying the leaf discs were infested with a thrips population of mixed ages. The samples were assessed for mortality 6 days after infestation.

[7] = tested on: Myzus Persicae (Green Peach Aphid); test: Myzus persicae (green peach aphid) feeding/contact activity; conditions: foliar, 144 h, application rate 200 ppm, sunflower leaf discs sprayed, aphid population of mixed ages, assessed 6 days after infestation
Procedure: Myzus Persicae (Green Peach Aphid) Feeding/Contact Activity
Sunflower leaf discs were placed onto agar in a 24-well microtiter plate and sprayed with aqueous test solutions prepared from 10 ′000 ppm DMSO stock solutions. After drying, the leaf discs were infested with an aphid population of mixed ages. The samples were assessed for mortality 6 days after infestation.

Measured: mortality at 200 ppm

N#CC1(NC(=O)c2cc(-c3cnn(-c4ccc(C(F)(C(F)(F)F)C(F)(F)F)cc4Cl)c3)sc2Cl)CC1 [Example 6, 2-chloro-5-[1-[2-chloro-4-[1,2,2,2-tetrafluoro-1-(trifluoromethyl)ethyl]phenyl]pyrazol-4-yl]-N-(1-cyanocyclopropyl)thiophene-3-carboxamide]
≥ 80%: [1] | [2] | [3] | [4]

CN(C(=O)c1cc(-c2cn(-c3c(Cl)cc(C(F)(C(F)(F)F)C(F)(F)F)cc3Cl)nn2)sc1Cl)C1(C#N)CC1 [Example 15, 2-chloro-N-(1-cyanocyclopropyl)-5-[1-[2,6-dichloro-4-[1,2,2,2-tetrafluoro-1-(trifluoromethyl)ethyl]phenyl]triazol-4-yl]-N-methyl-thiophene-3-carboxamide]
≥ 80%: [2] | [5] | [6] | [4]

N#Cc1sc(-c2cnn(-c3c(Cl)cc(C(F)(C(F)(F)F)C(F)(F)F)cc3Cl)c2)cc1C(=O)NC1CC1 [Example 1, 2-cyano-N-cyclopropyl-5-[1-[2,6-dichloro-4-[1,2,2,2-tetrafluoro-1-(trifluoromethyl)ethyl]phenyl]pyrazol-4-yl]thiophene-3-carboxamide]
≥ 80%: all assays above

CN(C(=O)c1cc(-c2cn(-c3c(Cl)cc(C(F)(C(F)(F)F)C(F)(F)F)cc3Cl)nn2)sc1C#N)C1CC1 [Example 12, 2-cyano-N-cyclopropyl-5-[1-[2,6-dichloro-4-[1,2,2,2-tetrafluoro-1-(trifluoromethyl)ethyl]phenyl]triazol-4-yl]-N-methyl-thiophene-3-carboxamide]
not listed: [7]
≥ 80%: all other assays above

N#CC1(NC(=O)c2cc(-c3cn(-c4c(Cl)cc(C(F)(C(F)(F)F)C(F)(F)F)cc4Cl)nn3)sc2Cl)CC1 [Example 16, 2-chloro-N-(1-cyanocyclopropyl)-5-[1-[2,6-dichloro-4-[1,2,2,2-tetrafluoro-1-(trifluoromethyl)ethyl]phenyl]triazol-4-yl]thiophene-3-carboxamide]
≥ 80%: [2] | [6]

N#Cc1sc(-c2cnn(-c3ccc(C(F)(C(F)(F)F)C(F)(F)F)cc3Cl)c2)cc1C(=O)NC1CC1 [Example 8, 5-[1-[2-chloro-4-[1,2,2,2-tetrafluoro-1-(trifluoromethyl)ethyl]phenyl]pyrazol-4-yl]-2-cyano-N-cyclopropyl-thiophene-3-carboxamide]
not listed: [5] | [6]
≥ 80%: all other assays above

Cc1cc(C(F)(C(F)(F)F)C(F)(F)F)cc(C)c1-n1cc(-c2cc(C(=O)NC3CC3)c(C#N)s2)cn1 [Example 5, 2-cyano-N-cyclopropyl-5-[1-[2,6-dimethyl-4-[1,2,2,2-tetrafluoro-1-(trifluoromethyl)ethyl]phenyl]pyrazol-4-yl]thiophene-3-carboxamide]
not listed: [5] | [6]
≥ 80%: all other assays above

CCN(C(=O)c1cc(-c2cn(-c3c(Cl)cc(C(F)(C(F)(F)F)C(F)(F)F)cc3Cl)nn2)sc1Cl)C1(C#N)CC1 [Example 14, 2-chloro-N-(1-cyanocyclopropyl)-5-[1-[2,6-dichloro-4-[1,2,2,2-tetrafluoro-1-(trifluoromethyl)ethyl]phenyl]triazol-4-yl]-N-ethyl-thiophene-3-carboxamide]
≥ 80%: [2] | [5] | [6] | [4]

N#Cc1sc(-c2cnn(-c3c(Cl)cc(C(F)(C(F)(F)F)C(F)(F)F)cc3Cl)c2)cc1C(=O)NC1(C#N)CC1 [Example 3, 2-cyano-N-(1-cyanocyclopropyl)-5-[1-[2,6-dichloro-4-[1,2,2,2-tetrafluoro-1-(trifluoromethyl)ethyl]phenyl]pyrazol-4-yl]thiophene-3-carboxamide]
not listed: [7]
≥ 80%: all other assays above

CCN(C(=O)c1cc(-c2cn(-c3c(Cl)cc(C(F)(C(F)(F)F)C(F)(F)F)cc3Cl)nn2)sc1C#N)C1CC1 [Example 11, 2-cyano-N-cyclopropyl-5-[1-[2,6-dichloro-4-[1,2,2,2-tetrafluoro-1-(trifluoromethyl)ethyl]phenyl]triazol-4-yl]-N-ethyl-thiophene-3-carboxamide]
not listed: [1] | [7]
≥ 80%: all other assays above

Cc1cc(C(F)(C(F)(F)F)C(F)(F)F)cc(C)c1-n1cc(-c2cc(C(=O)NC3(C#N)CC3)c(Cl)s2)cn1 [Example 10, 2-chloro-N-(1-cyanocyclopropyl)-5-[1-[2,6-dimethyl-4-[1,2,2,2-tetrafluoro-1-(trifluoromethyl)ethyl]phenyl]pyrazol-4-yl]thiophene-3-carboxamide]
not listed: [7]
≥ 80%: all other assays above

N#Cc1sc(-c2cn(-c3c(Cl)cc(C(F)(C(F)(F)F)C(F)(F)F)cc3Cl)nn2)cc1C(=O)NC1CC1 [Example 13, 2-cyano-N-cyclopropyl-5-[1-[2,6-dichloro-4-[1,2,2,2-tetrafluoro-1-(trifluoromethyl)ethyl]phenyl]triazol-4-yl]thiophene-3-carboxamide]
≥ 80%: [2] | [5] | [6] | [4]

N#CC1(NC(=O)c2cc(-c3cnn(-c4c(Cl)cc(C(F)(C(F)(F)F)C(F)(F)F)cc4Br)c3)sc2Cl)CC1 [Example 7, 5-[1-[2-bromo-6-chloro-4-[1,2,2,2-tetrafluoro-1-(trifluoromethyl)ethyl]phenyl]pyrazol-4-yl]-2-chloro-N-(1-cyanocyclopropyl)thiophene-3-carboxamide]
≥ 80%: [1] | [2] | [3] | [4]

Source: US20230148600A1, “PESTICIDALLY ACTIVE THIOPHENE DERIVATIVES” (SYNGENTA PARTICIPATIONS AG, priority 2017, published 2023)
